Data published in patent US20260262643A1, “HERBICIDAL BENZOXAZINES” (FMC CORPORATION, priority 2022, published 2026).

Legend:
barnyardgrass [1] = assay: Test C preemergence; type: in vivo, Echinochloa crusgalli
How it was run: (§1)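 Visual injury ratings on a 0–100 scale (100 = complete control) were made against untreated controls 10 days after treatment in the greenhouse. Compounds, formulated with surfactant in non-phytotoxic solvent, were sprayed on soil preemergence or onto one- to two-leaf plants 2–10 cm tall postemergence.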

blackgrass [2] = assay: Test C preemergence; type: in vivo, Alopecurus myosuroides
How it was run: as §1

corn [3] = assay: Test C preemergence; type: in vivo, Zea mays
How it was run: as §1

foxtail, giant [4] = assay: Test C preemergence; type: in vivo, Setaria faberi
How it was run: as §1

kochia [5] = assay: Test C preemergence; type: in vivo, Bassia scoparia
How it was run: as §1

oat, wild [6] = assay: Test C preemergence; type: in vivo, Avena fatua
How it was run: as §1

pigweed, palmer [7] = assay: Test C preemergence; type: in vivo, Amaranthus palmeri
How it was run: as §1

ragweed [8] = assay: Test C preemergence; type: in vivo, Ambrosia artemisiifolia; conditions: Preemergence, 125 g ai/ha; 0 to 100 scale, 0 no effect, 100 complete control
How it was run: as §1

ryegrass, Italian [9] = assay: Test C preemergence; type: in vivo, Lolium multiflorum
How it was run: as §1

soybean [10] = assay: Test C preemergence; type: in vivo, Glycine max
How it was run: as §1

wheat [11] = assay: Test C preemergence; type: in vivo, Triticum aestivum
How it was run: as §1

barnyardgrass [12] = assay: Test C postemergence; type: in vivo, Echinochloa crusgalli; conditions: 10 days, 0 to 100 scale (0 no effect, 100 complete control)
How it was run: as §1

blackgrass [13] = assay: Test C postemergence; type: in vivo, Alopecurus myosuroides; conditions: 10 days, 0 to 100 scale (0 no effect, 100 complete control)
How it was run: as §1

corn [14] = assay: Test C postemergence; type: in vivo, Zea mays; conditions: 10 days, 0 to 100 scale (0 no effect, 100 complete control)
How it was run: as §1

foxtail, giant [15] = assay: Test C postemergence; type: in vivo, Setaria faberi; conditions: 10 days, 0 to 100 scale (0 no effect, 100 complete control)
How it was run: as §1

kochia [16] = assay: Test C postemergence; type: in vivo, Bassia scoparia; conditions: 10 days, 0 to 100 scale (0 no effect, 100 complete control)
How it was run: as §1

oat, wild [17] = assay: Test C postemergence; type: in vivo, Avena fatua; conditions: 10 days, 0 to 100 scale (0 no effect, 100 complete control)
How it was run: as §1

pigweed, palmer [18] = assay: Test C postemergence; type: in vivo, Amaranthus palmeri; conditions: 10 days, 0 to 100 scale (0 no effect, 100 complete control)
How it was run: as §1

ragweed [19] = assay: Test C postemergence; type: in vivo, Ambrosia artemisiifolia; conditions: 10 days, 0 to 100 scale (0 no effect, 100 complete control)
How it was run: as §1

ryegrass, Italian [20] = assay: Test C postemergence; type: in vivo, Lolium multiflorum; conditions: 10 days, 0 to 100 scale (0 no effect, 100 complete control)
How it was run: as §1

soybean [21] = assay: Test C postemergence; type: in vivo, Glycine max; conditions: 10 days, 0 to 100 scale (0 no effect, 100 complete control)
How it was run: as §1

wheat [22] = assay: Test C postemergence; type: in vivo, Triticum aestivum; conditions: 10 days, 0 to 100 scale (0 no effect, 100 complete control)
How it was run: as §1

galium = assay: Test C postemergence; type: in vivo, Galium aparine; conditions: 10 days, 0 to 100 scale (0 no effect, 100 complete control)
How it was run: as §1

horseweed = assay: Test C postemergence; type: in vivo, Erigeron canadensis; conditions: 10 days, 0 to 100 scale (0 no effect, 100 complete control)
How it was run: as §1

barnyardgrass [23] = assay: Test D flooded paddy test; type: in vivo, Echinochloa crus-galli; conditions: 250 g ai/ha, applied to paddy water, visual rating after 13 to 14 days, scale 0 to 100 (0 no effect, 100 complete control)
How it was run: (§2)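 Seedlings reached the 2-leaf stage, then pots were flooded to 3 cm over the soil surface. Compound was applied into the water, depth was maintained, and plants stayed in the greenhouse 13 to 14 days before visual scoring (0–100) relative to controls.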

ducksalad = assay: Test D flooded paddy test; type: in vivo, Heteranthera limosa; conditions: 250 g ai/ha, applied to paddy water, visual rating after 13 to 14 days, scale 0 to 100 (0 no effect, 100 complete control)
How it was run: as §2

rice = assay: Test D flooded paddy test; type: in vivo, Oryza sativa; conditions: 250 g ai/ha, applied to paddy water, visual rating after 13 to 14 days, scale 0 to 100 (0 no effect, 100 complete control)
How it was run: as §2

sedge, umbrella = assay: Test D flooded paddy test; type: in vivo, Cyperus difformis; conditions: 250 g ai/ha, applied to paddy water, visual rating after 13 to 14 days, scale 0 to 100 (0 no effect, 100 complete control)
How it was run: as §2

[24] = 500 g ai/ha, preemergence, 0 to 100 scale (0 no effect, 100 complete control)
[25] = Preemergence, 125 g ai/ha, 0 to 100 scale, 0 no effect, 100 complete control

CC(C)(C)c1ncn(-c2cc(C(=O)N3CC(C(F)(F)F)Oc4c(Cl)cccc43)ccn2)n1 (stereo not drawn) [Compound 322]
Barnyardgrass plant response rating (barnyardgrass [1]; [24]): 90
Plant response rating, Barnyardgrass (barnyardgrass [1]; [25]): 40
Blackgrass plant response rating (blackgrass [2]; [24]): 40
Plant response rating, Blackgrass (blackgrass [2]; [25]): 40
Corn plant response rating (corn [3]; [24]): 30
Plant response rating, Corn (corn [3]; [25]): 30
Foxtail, Giant plant response rating (foxtail, giant [4]; [24]): 100
Plant response rating, Foxtail, Giant (foxtail, giant [4]; [25]): 90
Kochia plant response rating (kochia [5]; [24]): 40
Plant response rating, Kochia (kochia [5]; [25]): 20
Oat, Wild plant response rating (oat, wild [6]; [24]): 30
Plant response rating, Oat, Wild (oat, wild [6]; [25]): 0
Pigweed, Palmer plant response rating (pigweed, palmer [7]; [24]): 90
Plant response rating, Pigweed, Palmer (pigweed, palmer [7]; [25]): 40
Plant response rating, Ragweed (ragweed [8]): 0
Ryegrass, Italian plant response rating (ryegrass, Italian [9]; [24]): 80
Plant response rating, Ryegrass, Italian (ryegrass, Italian [9]; [25]): 60
Soybean plant response rating (soybean [10]; [24]): 70
Plant response rating, Soybean (soybean [10]; [25]): 0
Wheat plant response rating (wheat [11]; [24]): 20
Plant response rating, Wheat (wheat [11]; [25]): 0
Plant response rating, Barnyardgrass (barnyardgrass [12]; 500 g ai/ha, postemergence): 50
Plant response rating, Barnyardgrass (barnyardgrass [12]; Postemergence, 125 g ai/ha): 40
Plant response rating, Blackgrass (blackgrass [13]; 500 g ai/ha, postemergence): 40
Plant response rating, Blackgrass (blackgrass [13]; Postemergence, 125 g ai/ha): 10
Plant response rating, Corn (corn [14]; 500 g ai/ha, postemergence): 10
Plant response rating, Corn (corn [14]; Postemergence, 125 g ai/ha): 10
Plant response rating, Foxtail, Giant (foxtail, giant [15]; 500 g ai/ha, postemergence): 90
Plant response rating, Foxtail, Giant (foxtail, giant [15]; Postemergence, 125 g ai/ha): 50
Plant response rating, Kochia (kochia [16]; 500 g ai/ha, postemergence): 80
Plant response rating, Kochia (kochia [16]; Postemergence, 125 g ai/ha): 60
Plant response rating, Oat, Wild (oat, wild [17]; 500 g ai/ha, postemergence): 30
Plant response rating, Oat, Wild (oat, wild [17]; Postemergence, 125 g ai/ha): 0
Plant response rating, Pigweed, Palmer (pigweed, palmer [18]; 500 g ai/ha, postemergence): 90
Plant response rating, Pigweed, Palmer (pigweed, palmer [18]; Postemergence, 125 g ai/ha): 50
Plant response rating, Ragweed (ragweed [19]; 500 g ai/ha, postemergence): 50
Plant response rating, Ragweed (ragweed [19]; Postemergence, 125 g ai/ha): 40
Plant response rating, Ryegrass, Italian (ryegrass, Italian [20]; 500 g ai/ha, postemergence): 40
Plant response rating, Ryegrass, Italian (ryegrass, Italian [20]; Postemergence, 125 g ai/ha): 20
Plant response rating, Soybean (soybean [21]; 500 g ai/ha, postemergence): 100
Plant response rating, Soybean (soybean [21]; Postemergence, 125 g ai/ha): 60
Plant response rating, Wheat (wheat [22]; 500 g ai/ha, postemergence): 20
Plant response rating, Wheat (wheat [22]; Postemergence, 125 g ai/ha): 20
Plant response rating, Galium (galium; 500 g ai/ha, postemergence): 70
Plant response rating, Galium (galium; Postemergence, 125 g ai/ha): 70
Plant response rating, Horseweed (horseweed; 500 g ai/ha, postemergence): 0
Plant response rating, Horseweed (horseweed; Postemergence, 125 g ai/ha): 0
Plant response rating, Barnyardgrass (Flood) (barnyardgrass [23]): 0
Plant response rating, Ducksalad (Flood) (ducksalad): 0
Plant response rating, Rice (Flood) (rice): 0
Plant response rating, Sedge, Umbrella (Flood) (sedge, umbrella): 0
